# According to patent US20260041679A1, “METHOD OF TREATING HYPERTENSION WITH THE ALDOSTERONE SYNTHASE INHIBITOR BAXDROSTAT” (CINCOR PHARMA, INC., priority 2022, published 2026):
# Where two headings read alike, the source gives them in different places. Marks after values point to notes of the source that are not given here.
# Tests used:
# [1] = Single ascending dose study, pharmacokinetics (Example 1); format: in vivo
# Protocol: Eighty-eight healthy male volunteers completed the first-in-human study of baxdrostat. In part 1 of the trial, subjects received a single oral dose of baxdrostat ranging from 1 to 360 mg in order to evaluate safety, tolerability, PK, and pharmacodynamics (PD). Part 2 evaluated the PK of a single 3 mg intravenous dose of baxdrostat.
# [2] = Study 121: serum electrolytes and eGFR; format: in vivo, human
# Excerpt: Aldosterone plays a direct role in the pathogenesis of hypertension via increasing renal absorption of sodium and water while promoting excretion of potassium. There is the potential therefore for an aldosterone synthesis inhibitor to cause the electrolyte abnormalities of hyperkalemia or hyponatremia. Moreover, the decrease in SBP expected with aldosterone inhibitors will reduce blood flow through the afferent arterioles in the kidney, leading to an apparent decline in determination of eGFR. These potential perturbations in kidney physiology were closely monitored throughout the study via the measurement of serum electrolytes and eGFR.
# [3] = Pharmacokinetics in subjects with moderate hepatic impairment vs normal hepatic function (Example 5); format: in vivo, human; details: for CL renal / Cmax / AUC(0-inf) / Tmax: human, oral, 10 mg; for CL renal: plasma and urine, read-out: CLR, geometric mean (% CV) (converted); for CL renal / Cmax / AUC(0-inf) / Tmax / CL/F, geometric mean (% CV): single 10 mg; for Cmax / AUC(0-inf) / Tmax: plasma; for Cmax: read-out: Cmax, geometric mean (% CV); for AUC(0-inf): read-out: AUC(0-inf), geometric mean (% CV); for Tmax: read-out: Tmax, arithmetic mean (SD)
# Protocol: (§1) Subjects with moderate hepatic impairment (Child-Pugh Category B, n=10) and healthy controls (n=10) were each given a single 10 mg oral dose of baxdrostat. Subjects were matched by age, sex, body mass index, race, and smoking status. Serial blood and urine samples were collected to determine plasma and urine concentrations of baxdrostat for 7 days postdose. Safety was assessed based on adverse events, clinical laboratory evaluations, vital signs, electrocardiogram and physical examinations.
# [4] = Safety in hepatic function study (Example 5); format: in vivo, human
# Protocol: as §1
# [5] = Pharmacokinetics in subjects with varying degrees of renal function (Example 4); format: in vivo, human; details: for half-life / Tmax / AUC(0-inf) / AUC(0-t) / Cmax / Vd/F: human, plasma, oral, 10 mg; for AUC(0-inf): read-out: AUC0-inf, mean (SD); for AUC(0-t): read-out: AUC0-last, mean (SD); for Cmax: read-out: Cmax, mean (SD); for Vd/F: read-out: Vz/F, mean (SD)
# Protocol: This phase 1, open-label, single-dose, parallel-group study was designed in accordance with the FDA guidance for the design and analysis of studies that assess the influence of impaired renal function on PK. Subjects were enrolled into three renal function groups defined based on eGFR calculated using the Chronic Kidney Disease Epidemiology Collaboration equation as follows: […]
# Control(normal renal function or mild renal impairment:eGFR≥60 mL/min) • Moderate to severe renal impairment (eGFR 15 to 59 mL/min) • Kidney failure (eGFR<15 mL/min, including subjects on dialysis)
# All subjects received a single 10 mg dose of baxdrostat in an open-label manner. […] All subjects were required to fast for a minimum of 10 hours prior to baxdrostat administration. They were then dosed at 8:00 AM (±2 hours) with two 5 mg tablets administered with approximately 240 mL of water. Subjects continued fasting for a minimum of 4 hours after dosing. No other medications were permitted within 2 hours prior to dosing and for 2 hours after dosing with baxdrostat. Subjects on dialysis received the study drug on a non-dialysis day. Blood and urine sample collection for PK analysis continued for 7 days and was proceeded by a follow-up phone call 3±1 days after clinic discharge.
# Plasma and urine samples were analyzed to measure concentrations of baxdrostat and its primary metabolite (baxdrostat-M) using a validated LC-MS/MS method. “Baxdrostat-M” as used herein refers a compound having the following structure:
# Blood and urine samples were collected prior to and after dosing for measurement of plasma and urine baxdrostat and baxdrostat-M concentrations to characterize maximum observed plasma concentration (Cmax), time to Cmax (Tmax), AUC0-last, and AUC0-inf for baxdrostat and baxdrostat-M. The t1/2, CL/F, and V/F were calculated for plasma baxdrostat only. Urine PK parameters included the cumulative amount of baxdrostat and baxdrostat-M excreted in urine (Ae), renal clearance (CLR) of baxdrostat and baxdrostat-M, and fraction of dose excreted renally (Fe) for baxdrostat.
# [6] = Relative bioavailability tablet vs oral solution and food effect (Example 3); format: in vivo, human; details: for Tmax: human, plasma, oral, 5 mg
# Protocol: The relative bioavailability of a tablet formulation of baxdrostat was compared to the oral solution of baxdrostat that was administered in the SAD (Example 1) and MAD (Example 2) studies. A single 5 mg dose of each formulation in fourteen healthy volunteers established that plasma levels of baxdrostat were equivalent whether administered using the oral solution or tablet. This study also assessed the effect of a standardized high-fat meal on the PK of baxdrostat.
# [7] = Absorption, metabolism and excretion of [14C]-baxdrostat (Example 7); format: in vivo, human
# Protocol: Eight male subjects each received a single oral 10 mg (containing approximately 100 uCi) dose of baxdrostat. Blood, urine and fecal samples were collected to determine the metabolic and excretion pathways of baxdrostat. Preliminary findings indicate that the mean excretion of radioactivity was 69.4% and 15.3%, of the dose in the urine and feces, respectively. Unchanged baxdrostat was the major component in urine and feces, constituting 16.8% and 6.1% of the dose, respectively.
# [8] = moderate hepatic impairment vs normal hepatic function
# [9] = control eGFR ≥60 mL/min, single 10 mg
# [10] = kidney failure eGFR <15 mL/min, single 10 mg
# [11] = moderate to severe renal impairment eGFR 15-59 mL/min, single 10 mg
# [12] = single oral 10 mg [14C] dose, preliminary findings
structure (smiles),measurement,setting,value
"CCC(=O)N[C@@H]1CCCc2c(-c3ccc4c(c3)CCC(=O)N4C)cncc21 [baxdrostat, (R)—N-(4-(1-methyl-2-oxo-1,2,3,4-tetrahydroquinolin-6-yl)-5,6,7,8-tetrahydroisoquinolin-8-yl) propionamide]",half-life,"[1]; human, plasma, oral, single dose, healthy male volunteers",29 h
same,plasma levels of baxdrostat vs dose,[1]; single oral dose 1 to 360 mg,increased in a dose-proportional manner
same,AEs of renal impairment,[2]; 0.5 mg,no cases
same,"change in serum potassium from baseline to end of treatment, mean (standard deviation)",[2]; 0.5 mg,0.19 (0.474) mEq/L
same,"change in serum sodium from baseline to end of treatment, mean (SD)",[2]; 0.5 mg,−1.2 (2.73) mEq/L
same,patients with mild hyponatremia (serum sodium <130 mEq/L),[2]; 0.5 mg,1 patients
same,AEs of renal impairment,[2]; 1 mg,3
same,"change in serum potassium from baseline to end of treatment, mean (standard deviation)",[2]; 1 mg,0.36 (0.481) mEq/L
same,"change in serum sodium from baseline to end of treatment, mean (SD)",[2]; 1 mg,−1.1 (3.03) mEq/L
same,patients with mild hyponatremia (serum sodium <130 mEq/L),[2]; 1 mg,7 patients
same,AEs of renal impairment,[2]; 2 mg,1
same,"change in serum potassium from baseline to end of treatment, mean",[2]; 2 mg,0.29 mEq/L
same,"change in serum sodium from baseline to end of treatment, mean",[2]; 2 mg,−2.4 mEq/L
same,patients with mild hyponatremia (serum sodium <130 mEq/L),[2]; 2 mg,1 patients
same,mean eGFR,"[2]; 0.5, 1, 2 mg QD",mild dose-dependent decrease in mean eGFR
same,overall rate of moderate hyperkalemia (potassium>6.0 mEq/L),[2]; 2 highest dose groups,2.2%
same,patients with moderate hyperkalemia (potassium>6.0 mEq/L),[2]; 2 highest dose groups,3 patients
same,moderate hypokalemia (potassium 3.0 to 2.5 mEq/L),[2]; any baxdrostat dose groups,no cases
same,"relationship between dose and serum calcium, serum phosphorus",[2]; in vivo,no apparent relationship
same,CL renal,[3]; moderate hepatic impairment,4.98 mL/min
same,CL renal,[3]; normal hepatic function,6.02 mL/min
same,Cmax,[3]; moderate hepatic impairment (n = 10),119 ng/mL
same,AUC(0-inf),[3]; moderate hepatic impairment,3570 ng·h/mL
same,Tmax,[3]; moderate hepatic impairment,2.15 h
same,Cmax,[3]; normal hepatic function (n = 10),104 ng/mL
same,AUC(0-inf),[3]; normal hepatic function,3780 ng·h/mL
same,Tmax,[3]; normal hepatic function,2.55 h
same,"AUC(0-inf), ratio of GLSM (90% CI)",[3]; [8],"0.95 (0.73, 1.23)"
same,"Cmax, ratio of GLSM (90% CI)",[3]; [8],"1.1 (0.97, 1.32)"
same,"CL/F, geometric mean (% CV)",[3]; moderate hepatic impairment,2.80 (30.1) L/hr
same,"CL/F, geometric mean (% CV)",[3]; normal hepatic function,2.64 (24.7) L/hr
same,"clinical laboratory evaluations, vital signs, electrocardiograms, physical examinations",[4]; both groups,No clinically significant changes
same,TEAE deemed related to baxdrostat,[4]; normal hepatic function group,One TEAE of headache with moderate severity
same,"deaths, serious TEAEs, study discontinuations","[4]; single 10 mg, both hepatic function groups","no deaths, serious treatment-emergent adverse events (TEAE), or study discontinuations"
same,recovered unchanged in the urine,[5]; control and moderate to severe renal impairment groups,Approximately 12%
same,"CL/F, mean (SD)",[5]; [9],3.06 (0.9) L/h
same,"Fe (urine), mean (CV %)",[5]; [9],12.53 (38.1) %
same,half-life,"[5]; across renal function groups, read-out: average half-life",30 to 42 h
same,Tmax,"[5]; all renal function groups, single 10 mg, read-out: median Tmax",≤ 1.5 h
same,AUC(0-inf),[5]; [9],3530 ng·h/mL
same,AUC(0-t),[5]; [9],3380 ng·h/mL
same,Cmax,[5]; [9],108 ng/mL
same,Tmax,"[5]; control eGFR ≥60 mL/min, single 10 mg, read-out: Tmax, mean (SD)",2.1 h
same,Vd/F,[5]; [9],146 L
same,half-life,"[5]; control eGFR ≥60 mL/min, single 10 mg, read-out: t1/2, mean (SD) (converted)",35.6 h
same,AUC(0-inf),[5]; [10],2660 ng·h/mL
same,AUC(0-t),[5]; [10],2570 ng·h/mL
same,Cmax,[5]; [10],96 ng/mL
same,Tmax,"[5]; kidney failure eGFR <15 mL/min, single 10 mg, read-out: Tmax, mean (SD)",1.63 h
same,Vd/F,[5]; [10],200 L
same,AUC(0-inf),[5]; [11],4340 ng·h/mL
same,AUC(0-t),[5]; [11],4010 ng·h/mL
same,Cmax,[5]; [11],110 ng/mL
same,Tmax,"[5]; moderate to severe renal impairment eGFR 15-59 mL/min, single 10 mg, read-out: Tmax, mean (SD)",1.82 h
same,Vd/F,[5]; [11],142 L
same,half-life,"[5]; moderate to severe renal impairment eGFR 15-59 mL/min, single 10 mg, read-out: t1/2, mean (SD) (converted)",42.1 h
same,"CL/F, mean (SD)",[5]; [10],5.07 (2.9) L/h
same,"Fe (urine), mean (CV %)",[5]; [10],0.91 (60.7)* %
same,"t1/2, mean (SD)",[5]; [10],29.70 (10.5) h
same,renal excretion,[5]; kidney failure group,minimal renal excretion
same,"CL/F, mean (SD)",[5]; [11],2.60 (1.0) L/h
same,"Fe (urine), mean (CV %)",[5]; [11],11.81 (26.0) %
same,"effect of renal impairment on Cmax, AUC, half-life, apparent plasma clearance, renal clearance",[5]; pairwise comparisons versus control,no meaningful effect
same,Tmax,[6]; fasted state,~3 h
same,Tmax,[6]; fed state (high-fat meal),~4 h
same,"plasma levels, oral solution vs tablet",[6]; single 5 mg dose of each formulation,equivalent
same,effect of high-fat meal on plasma levels,"[6]; tablet, single 5 mg",no noteworthy effect
same,mean blood:plasma concentration ratios,[7]; radioactivity,low association of radioactivity with blood cells
same,share of total systemic exposure by AUC0-inf in plasma,[7]; single oral 10 mg [14C] dose,71%
same,unchanged baxdrostat in feces,[7]; single oral 10 mg [14C] dose,6.1 % of the dose
same,unchanged baxdrostat in urine,[7]; single oral 10 mg [14C] dose,16.8 % of the dose
same,mean excretion of radioactivity in feces,[7]; [12],15.3 % of the dose
same,mean excretion of radioactivity in urine,[7]; [12],69.4 % of the dose
